Measured values from patent publication US8192962B2, “Processes for detecting toxic substances” (Daikin Industries, Ltd., priority 2001, dated 2012).

System: Detoxification protein genes
Assay: DNA chip mRNA expression in yeast, detoxification protein genes (Table 8)
Assay type: cell-based, Saccharomyces cerevisiae S288C
Summary of the method: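 Whole-genome yeast DNA chip hybridization (65° C., >12 h) of Cy-labeled cDNA from S288C cells exposed 2 h at 25° C. to a sub-lethal toxicant dose in YPD; value is intensity relative to chemical-free control.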

With N#Cc1c(Cl)c(Cl)c(Cl)c(C#N)c1Cl [(9), 2,4,5,6-tetrachloro-1,3-benzenedicarbonitrile] the “The level of expressed mRNA in the presence of chemical substance/The level of expressed mRNA in the absence of chemical substance” value (yeast gene YBL064C) was 4.5, the “The level of expressed mRNA in the presence of chemical substance/The level of expressed mRNA in the absence of chemical substance” value (yeast gene YBR008C) was 54.6 and the “The level of expressed mRNA in the presence of chemical substance/The level of expressed mRNA in the absence of chemical substance” value (yeast gene YBR145W) was 0.1. The “The level of expressed mRNA in the presence of chemical substance/The level of expressed mRNA in the absence of chemical substance” value (yeast gene YBR244W) was 1.4, the “The level of expressed mRNA in the presence of chemical substance/The level of expressed mRNA in the absence of chemical substance” value (yeast gene YBR293W) was 5.5 and the “The level of expressed mRNA in the presence of chemical substance/The level of expressed mRNA in the absence of chemical substance” value (yeast gene YCL035C) was 1.9. The “The level of expressed mRNA in the presence of chemical substance/The level of expressed mRNA in the absence of chemical substance” value (yeast gene YCL069W) was 1.2, the “The level of expressed mRNA in the presence of chemical substance/The level of expressed mRNA in the absence of chemical substance” value (yeast gene YCR083W) was 1.8 and the “The level of expressed mRNA in the presence of chemical substance/The level of expressed mRNA in the absence of chemical substance” value (yeast gene YDL100C) was 5.4. The “The level of expressed mRNA in the presence of chemical substance/The level of expressed mRNA in the absence of chemical substance” value (yeast gene YDL168W) was 8.2, the “The level of expressed mRNA in the presence of chemical substance/The level of expressed mRNA in the absence of chemical substance” value (yeast gene YDR256C) was 5.2 and the “The level of expressed mRNA in the presence of chemical substance/The level of expressed mRNA in the absence of chemical substance” value (yeast gene YDR453C) was 4.5. The “The level of expressed mRNA in the presence of chemical substance/The level of expressed mRNA in the absence of chemical substance” value (yeast gene YDR513W) was 4.6, the “The level of expressed mRNA in the presence of chemical substance/The level of expressed mRNA in the absence of chemical substance” value (yeast gene YDR538W) was 0.3 and the “The level of expressed mRNA in the presence of chemical substance/The level of expressed mRNA in the absence of chemical substance” value (yeast gene YEL027W) was 0.9. The “The level of expressed mRNA in the presence of chemical substance/The level of expressed mRNA in the absence of chemical substance” value (yeast gene YEL065W) was 0.1, the “The level of expressed mRNA in the presence of chemical substance/The level of expressed mRNA in the absence of chemical substance” value (yeast gene YER185W) was 2.9 and the “The level of expressed mRNA in the presence of chemical substance/The level of expressed mRNA in the absence of chemical substance” value (yeast gene YFL050C) was 0.5. For the same compound, the “The level of expressed mRNA in the presence of chemical substance/The level of expressed mRNA in the absence of chemical substance” value (yeast gene YGL013C) was 3.0, the “The level of expressed mRNA in the presence of chemical substance/The level of expressed mRNA in the absence of chemical substance” value (yeast gene YGL254W) was 3.1 and the “The level of expressed mRNA in the presence of chemical substance/The level of expressed mRNA in the absence of chemical substance” value (yeast gene YGR088W) was 1.5. For the same compound, the “The level of expressed mRNA in the presence of chemical substance/The level of expressed mRNA in the absence of chemical substance” value (yeast gene YGR138C) was 0.5, the “The level of expressed mRNA in the presence of chemical substance/The level of expressed mRNA in the absence of chemical substance” value (yeast gene YGR197C) was 16.7 and the “The level of expressed mRNA in the presence of chemical substance/The level of expressed mRNA in the absence of chemical substance” value (yeast gene YGR209C) was 2.4. The “The level of expressed mRNA in the presence of chemical substance/The level of expressed mRNA in the absence of chemical substance” value (yeast gene YGR224W) was 0.9, the “The level of expressed mRNA in the presence of chemical substance/The level of expressed mRNA in the absence of chemical substance” value (yeast gene YHL040C) was 1.1 and the “The level of expressed mRNA in the presence of chemical substance/The level of expressed mRNA in the absence of chemical substance” value (yeast gene YHL047C) was 1.2. The “The level of expressed mRNA in the presence of chemical substance/The level of expressed mRNA in the absence of chemical substance” value (yeast gene YHR008C) was 1.7, the “The level of expressed mRNA in the presence of chemical substance/The level of expressed mRNA in the absence of chemical substance” value (yeast gene YHR048W) was 4.5 and the “The level of expressed mRNA in the presence of chemical substance/The level of expressed mRNA in the absence of chemical substance” value (yeast gene YHR053C) was 4.5. The “The level of expressed mRNA in the presence of chemical substance/The level of expressed mRNA in the absence of chemical substance” value (yeast gene YHR055C) was 3.9, the “The level of expressed mRNA in the presence of chemical substance/The level of expressed mRNA in the absence of chemical substance” value (yeast gene YIR002C) was 1.7 and the “The level of expressed mRNA in the presence of chemical substance/The level of expressed mRNA in the absence of chemical substance” value (yeast gene YIR038C) was 4.6. The “The level of expressed mRNA in the presence of chemical substance/The level of expressed mRNA in the absence of chemical substance” value (yeast gene YJL101C) was 3.1, the “The level of expressed mRNA in the presence of chemical substance/The level of expressed mRNA in the absence of chemical substance” value (yeast gene YJR104C) was 1.9 and the “The level of expressed mRNA in the presence of chemical substance/The level of expressed mRNA in the absence of chemical substance” value (yeast gene YKL026C) was 7.5. For the same compound, the “The level of expressed mRNA in the presence of chemical substance/The level of expressed mRNA in the absence of chemical substance” value (yeast gene YKL064W) was 2.4, the “The level of expressed mRNA in the presence of chemical substance/The level of expressed mRNA in the absence of chemical substance” value (yeast gene YKR066C) was 0.7 and the “The level of expressed mRNA in the presence of chemical substance/The level of expressed mRNA in the absence of chemical substance” value (yeast gene YKR105C) was 1.0. For the same compound, the “The level of expressed mRNA in the presence of chemical substance/The level of expressed mRNA in the absence of chemical substance” value (yeast gene YKR106W) was 10.5, the “The level of expressed mRNA in the presence of chemical substance/The level of expressed mRNA in the absence of chemical substance” value (yeast gene YLL028W) was 1.2 and the “The level of expressed mRNA in the presence of chemical substance/The level of expressed mRNA in the absence of chemical substance” value (yeast gene YLL057C) was 121.8. The “The level of expressed mRNA in the presence of chemical substance/The level of expressed mRNA in the absence of chemical substance” value (yeast gene YLL060C) was 13.0, the “The level of expressed mRNA in the presence of chemical substance/The level of expressed mRNA in the absence of chemical substance” value (yeast gene YLR043C) was 2.8 and the “The level of expressed mRNA in the presence of chemical substance/The level of expressed mRNA in the absence of chemical substance” value (yeast gene YLR046C) was 1.0. The “The level of expressed mRNA in the presence of chemical substance/The level of expressed mRNA in the absence of chemical substance” value (yeast gene YML028W) was 0.8, the “The level of expressed mRNA in the presence of chemical substance/The level of expressed mRNA in the absence of chemical substance” value (yeast gene YML116W) was 1.4 and the “The level of expressed mRNA in the presence of chemical substance/The level of expressed mRNA in the absence of chemical substance” value (yeast gene YMR015C) was 0.1. The “The level of expressed mRNA in the presence of chemical substance/The level of expressed mRNA in the absence of chemical substance” value (yeast gene YMR038C) was 2.4, the “The level of expressed mRNA in the presence of chemical substance/The level of expressed mRNA in the absence of chemical substance” value (yeast gene YNL239W) was 2.5 and the “The level of expressed mRNA in the presence of chemical substance/The level of expressed mRNA in the absence of chemical substance” value (yeast gene YNL241C) was 3.4. For the same compound, the “The level of expressed mRNA in the presence of chemical substance/The level of expressed mRNA in the absence of chemical substance” value (yeast gene YNL259C) was 1.6, the “The level of expressed mRNA in the presence of chemical substance/The level of expressed mRNA in the absence of chemical substance” value (yeast gene YOL158C) was 1.7 and the “The level of expressed mRNA in the presence of chemical substance/The level of expressed mRNA in the absence of chemical substance” value (yeast gene YOR031W) was 0.7. For the same compound, the “The level of expressed mRNA in the presence of chemical substance/The level of expressed mRNA in the absence of chemical substance” value (yeast gene YOR153W) was 3.2, the “The level of expressed mRNA in the presence of chemical substance/The level of expressed mRNA in the absence of chemical substance” value (yeast gene YOR247W) was 0.1 and the “The level of expressed mRNA in the presence of chemical substance/The level of expressed mRNA in the absence of chemical substance” value (yeast gene YOR251C) was 0.8. For the same compound, the “The level of expressed mRNA in the presence of chemical substance/The level of expressed mRNA in the absence of chemical substance” value (yeast gene YOR273C) was 0.6, the “The level of expressed mRNA in the presence of chemical substance/The level of expressed mRNA in the absence of chemical substance” value (yeast gene YPL163C) was 0.1 and the “The level of expressed mRNA in the presence of chemical substance/The level of expressed mRNA in the absence of chemical substance” value (yeast gene YPR200C) was 4.7.
